In ChEMBL document CHEMBL5214937, “Comparative analysis of p-terphenylquinone and seriniquinone derivatives as reactive oxygen species-modulating agents” (Bioorg Med Chem Lett, 2022):
Calls of active or inactive are those of the source. No cut-off for these calls is given here.

Key:
[1] = test system: HL-60; experiment: Antiproliferative activity against human HL-60 cells assessed as inhibition of cell growth incubated for 48 hrs by CCK-8 assay; type: functional, cell-based; conditions: HL-60, 48 h
[2] = test system: B16; experiment: Antiproliferative activity against mouse B16 cells assessed as inhibition of cell growth incubated for 48 hrs by CCK-8 assay; type: functional, cell-based; conditions: B16, 48 h
[3] = test system: HL-60; experiment: Antiproliferative activity against human HL-60 cells assessed as reduction in cell viability at 12.5 uM incubated for 48 hrs by CCK-8 assay relative to control; type: functional
[4] = test system: HL-60; experiment: Induction of ROS generation in human HL-60 cells assessed as fold increase in intracellular ROS level at 6.25 uM incubated for 3 hrs by NBT reduction assay relative to control; type: functional
[5] = test system: HL-60; experiment: Induction of cell morphological changes in human HL-60 cells assessed as chromatin condensation at 3 uM incubated for 48 hrs by Hoechst 33342 staining based microscopic analysis; type: functional
[6] = test system: HL-60; experiment: Induction of cell morphological changes in human HL-60 cells assessed as appearance of apoptotic bodies at 3 uM incubated for 48 hrs by Hoechst 33342 staining based microscopic analysis; type: functional
[7] = test system: HL-60; experiment: Induction of ROS generation in human HL-60 cells assessed as increase in extracellular ROS level at 6.25 uM incubated for 3 hrs by NBT reduction assay; type: functional, cell-based

Row | IC50 [1] | IC50 [2] | SMILES | Activity [3] | fold change (FC) [4] | Activity [5] | Activity [6] | Activity [7]
1 | > 25 µM |  | O=C1C(OC(=O)c2ccccc2)=C(c2ccc(O)cc2)C(=O)C(OC(=O)c2ccccc2)=C1c1ccc(O)cc1 |  |  |  |  | 
2 | 5.91 µM |  | COC1=C(c2ccccc2)C(=O)C(OC)=C(c2ccccc2)C1=O [BETULINAN A] |  |  |  |  | 
3 |  |  | COc1ccc2c(=O)c3oc4c5cc(OC)ccc5c(=O)c(=O)c4c3c(=O)c2c1 | 11% |  |  |  | 
4 | > 25 µM |  | COC1=C(c2ccc(O)cc2)C(=O)C(OC)=C(c2ccc(O)cc2)C1=O |  |  |  |  | 
5 | > 25 µM |  | COC1=C(c2ccc(OC)cc2)C(=O)C(OC)=C(c2ccc(OC)cc2)C1=O |  |  |  |  | 
6 |  |  | COc1ccc2c(=O)c3sc4c(=O)c5ccc(OC)cc5c(=O)c4c3c(=O)c2c1 | 31.8% |  |  |  | 
7 | 1.57 µM | 2.95 µM | O=c1c(=O)c2c(oc3c(=O)c4ccccc4c(=O)c32)c2ccccc12 | <10% | >4 | Active | Active | Active
8 | 1.73 µM | 2.38 µM | O=c1c2ccccc2c(=O)c2c1sc1c(=O)c3ccccc3c(=O)c12 | <10% | >4 | Active | Active | 
9 |  |  | COc1ccc2c(=O)c3c(oc4c5ccc(OC)cc5c(=O)c(=O)c43)c(=O)c2c1 | 74% |  |  |  | 
10 | > 25 µM |  | COc1ccc(C2=C(O)C(=O)C(c3ccc(OC)cc3)=C(O)C2=O)cc1 |  |  |  |  | 
11 | 0.07 µM | 0.18 µM | O=c1c2ccccc2c(=O)c2c1oc1c(=O)c3ccccc3c(=O)c12 | <10% | >4 | Active | Active | 
12 | 5.71 µM |  | O=C1C(O)=C(c2ccc(O)cc2)C(=O)C(O)=C1c1ccc(O)cc1 |  |  |  |  | 

Row | SMILES | IC50 [1] | IC50 [2] | Activity [3] | fold change (FC) [4] | Activity [5] | Activity [6] | Activity [7]
13 | O=c1c2ccccc2c(=O)c2c1[se]c1c(=O)c3ccccc3c(=O)c12 | 2.91 µM | 2.83 µM | <10% | >4 | Active | Active | 
14 | O=C1C(O)=C(c2ccccc2)C(=O)C(O)=C1c1ccccc1 | > 25 µM |  |  |  |  |  | 
